Drawing on US6620963B1, “TRICYCLO[6.2.202,7]DODECA-2(7),3,5-TRIEN-4-CARBONYLAMINO-PHENYL AND TRICYCLO[6.2.202,7]DODECA-2(7),3,5-TRIEN-4-CARBONYLAMINO-HETEROARYL AND RELATED COMPOUNDS HAVING RARα RECEPTOR SELECTIVE BIOLOGICAL ACTIVITY” (Allergan, Inc., priority 2002, dated 2003), this text covers Kd for three molecules.

Each structure is given as a SMILES string.

One test deals with T1, RARα (Homo sapiens, UniProt P10276).
T1 sequence (P10276 1-462): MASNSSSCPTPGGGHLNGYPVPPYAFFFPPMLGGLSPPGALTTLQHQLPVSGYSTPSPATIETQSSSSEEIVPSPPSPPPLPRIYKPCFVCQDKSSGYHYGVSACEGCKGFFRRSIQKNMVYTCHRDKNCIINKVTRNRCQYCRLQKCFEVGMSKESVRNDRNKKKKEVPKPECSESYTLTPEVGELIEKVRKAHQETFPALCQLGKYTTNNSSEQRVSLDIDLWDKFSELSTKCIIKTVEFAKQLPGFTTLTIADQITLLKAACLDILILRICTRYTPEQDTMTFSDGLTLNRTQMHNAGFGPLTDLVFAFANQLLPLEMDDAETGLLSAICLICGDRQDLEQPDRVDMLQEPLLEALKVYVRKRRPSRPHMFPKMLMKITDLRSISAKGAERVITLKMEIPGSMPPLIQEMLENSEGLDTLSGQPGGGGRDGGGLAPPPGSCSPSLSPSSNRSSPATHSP
As to the kind of experiment: ligand binding assay, RARα. The conditions noted are these: RARα receptor subtype; read-out: RAR Kd (nM) α. The text has this:
(§1) A holoreceptor transactivation assay and a ligand binding assay which measure the antagonist/agonist like activity of the compounds of the invention, or their ability to bind to the several retinoid receptor subtypes, respectively, are described in published PCT Application No. WO WO93/11755 (particularly on pages 30-33 and 37-41) published on Jun. 24, 1993, the specification of which is also incorporated herein by reference. A detailed experimental procedure for holoreceptor transactivations has been described by Heyman et al. Cell 68, 397-406, (1992); Allegretto et al. J. Biol. Chem. 268, 26625-26633, and Mangelsdorf et al. The Retinoids: Biology, Chemistry and Medicine, pp 319-349, Raven Press Ltd., New York, which are expressly incorporated herein by reference. The results obtained in this assay are expressed in EC50 numbers, as they are also in the chimeric receptor transactivation assay. The results of ligand binding assay are expressed in Kd numbers. (See Cheng et al. Biochemical Pharmacology Vol. 22 pp 3099-3108, expressly incorporated herein by reference.)

Another test has as its target T2, RARβ (Homo sapiens, UniProt P10826).
T2 sequence (P10826 1-455): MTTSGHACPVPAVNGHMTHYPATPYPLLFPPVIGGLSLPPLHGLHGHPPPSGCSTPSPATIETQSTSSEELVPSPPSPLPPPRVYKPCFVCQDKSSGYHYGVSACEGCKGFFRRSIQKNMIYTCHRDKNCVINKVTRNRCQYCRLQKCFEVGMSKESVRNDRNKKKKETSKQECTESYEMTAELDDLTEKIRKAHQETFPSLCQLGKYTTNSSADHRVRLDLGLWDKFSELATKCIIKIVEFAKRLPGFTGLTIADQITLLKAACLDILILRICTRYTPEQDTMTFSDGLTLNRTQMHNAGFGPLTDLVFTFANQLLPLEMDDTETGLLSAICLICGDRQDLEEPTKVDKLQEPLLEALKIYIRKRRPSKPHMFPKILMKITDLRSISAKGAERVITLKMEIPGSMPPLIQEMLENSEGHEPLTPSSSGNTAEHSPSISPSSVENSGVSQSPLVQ
In words: ligand binding assay, RARβ. The following applies: RARβ receptor subtype; read-out: RAR Kd (nM) β.
Description: as §1

The next test has as its target T3, RARγ (Homo sapiens, UniProt P13631).
T3 sequence (P13631 1-454): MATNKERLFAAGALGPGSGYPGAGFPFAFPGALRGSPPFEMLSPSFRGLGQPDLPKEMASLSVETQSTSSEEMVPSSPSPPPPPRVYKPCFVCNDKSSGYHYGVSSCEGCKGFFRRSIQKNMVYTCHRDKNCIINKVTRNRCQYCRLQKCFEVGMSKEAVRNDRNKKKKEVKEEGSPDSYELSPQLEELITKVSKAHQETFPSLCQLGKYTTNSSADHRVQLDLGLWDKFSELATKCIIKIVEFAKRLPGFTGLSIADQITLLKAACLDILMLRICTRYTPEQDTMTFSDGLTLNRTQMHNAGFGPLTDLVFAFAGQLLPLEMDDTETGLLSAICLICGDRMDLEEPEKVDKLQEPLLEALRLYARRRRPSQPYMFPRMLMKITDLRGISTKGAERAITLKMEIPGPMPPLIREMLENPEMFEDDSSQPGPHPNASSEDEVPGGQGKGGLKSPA
In words: ligand binding assay, RARγ. The conditions noted are these: RARγ receptor subtype; read-out: RAR Kd (nM) γ.
Description: as §1

With `CC12CCC(C)(CC1)c1cc(C(=O)Nc3ccc(C(=O)O)c(F)c3)c(O)cc12` [Compound 8, 2-Fluoro-4-[(5-hydroxy-1,8-dimethyl-tricyclo[6.2.20^2,7]dodeca-2(7),3,5-trien-4-carbonyl)amino]benzoic Acid], the figures for the Kd at RARα, at RARβ and on RARγ were 53 nM, 7200 nM and above 10000 nM, respectively.
The matching figures for `CC12CCC(C)(CC1)c1c2cc(C(=O)Nc2ccc(C(=O)O)c(F)c2)c(O)c1Br` [Compound 10, 4-[(6-Bromo-5-hydroxy-1,8-dimethyl-tricyclo[6.2.20^2,7]dodeca-2(7),3,5-trien-4-carbonyl)amino]-2-fluorobenzoic Acid]: 32 nM, above 10000 nM and above 10000 nM.
In the case of `CC12CCC(C)(CC1)c1c2cc(C(=O)Nc2cc(F)c(C(=O)O)c(F)c2)c(O)c1Br` [Compound 14, 4-[(6-Bromo-5-hydroxy-1,8-dimethyl-tricyclo[6.2.20^2,7]dodeca-2(7),3,5-trien-4-carbonyl)amino]-2,6-difluorobenzoic Acid], the Kd (as a rule, a measure of binding affinity in units of concentration) on RARα is 84 nM; on RARβ, above 10000 nM; at RARγ, above 10000 nM.
